Experimental data reported in ChEMBL document CHEMBL4390668, “Discovery and Structural Optimization of Acridones as Broad-Spectrum Antimalarials” (J Med Chem, 2019).
Activity calls are given as the source filed them. The calls are words filed in the database; no cut-off is given here.

Key:
[1] = Mean residence time in ICR mouse plasma at 80 mg/kg, po administered as single dose; assay type: ADME, organism-based
[2] = Apparent volume of distribution in ICR mouse plasma at 80 mg/kg, po administered as single dose; assay type: ADME, organism-based; details: in vivo
[3] = Apparent elimination half life in ICR mouse plasma at 80 mg/kg, po administered as single dose; assay type: ADME, organism-based; details: ICR, plasma, read-out: betat1/2(app) (converted)
[4] = tested on: Plasmodium yoelii; test: Antimalarial activity against blood stage Plasmodium yoelii MR4 MRA-428 infected in CF1 mouse assessed as suppression of parasitemia administered once daily via oral gavage for 4 days starting from 24 hrs post-infection and measured post-last dose by Giemsa-staining based microscopic analysis; assay type: functional
[5] = tested on: Plasmodium falciparum; test: Antimalarial activity against multidrug-resistant Plasmodium falciparum Dd2 infected in human erythrocytes by SYBR green 1-based fluorescence assay; assay type: functional, organism-based
[6] = tested on: Plasmodium falciparum; test: Antimalarial activity against multidrug-resistant Plasmodium falciparum 7G8 infected in human erythrocytes by SYBR green 1-based fluorescence assay; assay type: functional, organism-based
[7] = tested on: Plasmodium falciparum; test: Antimalarial activity against atovaquone-resistant Plasmodium falciparum Tm90-C2B infected in human erythrocytes by SYBR green 1-based fluorescence assay; assay type: functional, organism-based
[8] = tested on: Plasmodium berghei; test: Antimalarial activity against luciferase-expressing Plasmodium berghei ANKA 676m1cl1 sporozoites infected in human HepG2A16 cells measured after 45 hrs by luciferase-luciferin based reporter assay; assay type: functional, organism-based; details: ANKA 676m1cl1, HepG2A16, 45 h
[9] = tested on: Plasmodium yoelii; test: Antimalarial activity against blood stage Plasmodium yoelii MR4 MRA-428 infected in CF1 mouse assessed as suppression of parasitemia at 80 mg/kg, po administered once daily via gavage for 4 days starting from 24 hrs post-infection and measured at weekly intervals for 28 days by Giemsa-staining based microscopic analysis; assay type: functional
[10] = Toxicity in CF1 mouse infected with blood stage Plasmodium yoelii MR4 MRA-428 assessed as clinical toxicity at 80 mg/kg, po administered once daily via gavage for 4 days starting from for 4 days starting from 24 hrs post-infection and measured daily during compound dosing; assay type: organism-based; details: in vivo
[11] = Toxicity in CF1 mouse infected with blood stage Plasmodium yoelii MR4 MRA-428 assessed as behavioral changes at 80 mg/kg, po administered once daily via gavage for 4 days starting from for 4 days starting from 24 hrs post-infection and measured daily during compound dosing; assay type: organism-based; details: in vivo
[12] = tested on: Plasmodium berghei; test: Antimalarial activity against liver stage luciferase-expressing Plasmodium berghei ANKA 676m1cl1 sporozoites infected in C57BL/6 mouse assessed as suppression of parasitemia at 10 mg/kg, po pretreated for 1 day followed by parasite infection and subsequent compound dosing for 2 days measured at 24 to 48 hrs post-infection by luciferin-based real-time imaging analysis; assay type: functional
[13] = tested on: Plasmodium berghei; test: Antimalarial activity against blood stage luciferase-expressing Plasmodium berghei ANKA 676m1cl1 sporozoites infected in C57BL/6 mouse assessed as suppression of parasitemia at 10 mg/kg, po pretreated for 1 day followed by parasite infection and subsequent compound dosing for 2 days measured up to 30 days post-infection by YOYO1 staining based flow cytometry; assay type: functional
[14] = tested on: Plasmodium berghei; test: Antimalarial activity against blood stage luciferase-expressing Plasmodium berghei ANKA 676m1cl1 sporozoites infected in C57BL/6 mouse assessed as suppression of parasitemia at 4 mg/kg, po pretreated for 1 day followed by parasite infection and subsequent compound dosing for 2 days measured up to 30 days post-infection by YOYO1 staining based flow cytometry; assay type: functional
[15] = molecular target: hERG (KCNH2) (Homo sapiens, UniProt Q12809); test: Inhibition of human ERG expressed in CHOK1 cells at 10 uM by automated patch clamp method relative to control; assay type: cell-based; details: CHO-K1 cells that express hERG
Chain of hERG (KCNH2) (Q12809 whole entry): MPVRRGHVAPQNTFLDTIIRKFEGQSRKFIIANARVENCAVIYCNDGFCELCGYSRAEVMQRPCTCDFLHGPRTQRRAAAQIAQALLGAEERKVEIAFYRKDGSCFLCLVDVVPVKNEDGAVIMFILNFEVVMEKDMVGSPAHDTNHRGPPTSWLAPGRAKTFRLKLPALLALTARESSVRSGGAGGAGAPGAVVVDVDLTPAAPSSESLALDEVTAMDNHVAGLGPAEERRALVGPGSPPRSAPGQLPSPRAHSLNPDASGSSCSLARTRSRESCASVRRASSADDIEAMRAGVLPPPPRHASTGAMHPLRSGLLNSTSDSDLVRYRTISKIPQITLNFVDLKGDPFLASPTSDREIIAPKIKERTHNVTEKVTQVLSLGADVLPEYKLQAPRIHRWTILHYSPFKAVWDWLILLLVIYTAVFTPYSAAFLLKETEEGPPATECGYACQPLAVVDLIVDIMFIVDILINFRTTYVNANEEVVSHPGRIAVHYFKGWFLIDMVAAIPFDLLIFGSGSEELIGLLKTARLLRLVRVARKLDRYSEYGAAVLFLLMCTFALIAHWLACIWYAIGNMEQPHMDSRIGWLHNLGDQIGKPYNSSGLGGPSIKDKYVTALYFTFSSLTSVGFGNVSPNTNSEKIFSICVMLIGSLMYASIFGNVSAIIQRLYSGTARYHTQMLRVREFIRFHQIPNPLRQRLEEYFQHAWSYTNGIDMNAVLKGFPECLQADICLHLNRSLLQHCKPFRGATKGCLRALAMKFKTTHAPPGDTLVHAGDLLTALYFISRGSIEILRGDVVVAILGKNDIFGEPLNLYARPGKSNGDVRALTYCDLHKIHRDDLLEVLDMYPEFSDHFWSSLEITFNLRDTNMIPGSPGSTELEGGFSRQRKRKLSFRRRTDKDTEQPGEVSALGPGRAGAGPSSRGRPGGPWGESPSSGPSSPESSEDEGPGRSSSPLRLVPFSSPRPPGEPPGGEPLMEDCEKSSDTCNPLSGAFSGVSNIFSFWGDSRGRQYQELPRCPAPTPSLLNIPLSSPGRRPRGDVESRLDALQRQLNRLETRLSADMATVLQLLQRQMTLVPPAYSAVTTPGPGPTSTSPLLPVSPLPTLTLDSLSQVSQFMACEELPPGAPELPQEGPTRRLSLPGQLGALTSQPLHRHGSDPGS

[16] = Half life in human liver microsomes at 1 uM by LC-MS analysis; assay type: ADME, Microsome
[17] = Mutagenicity in Salmonella typhimurium TA100 assessed as increase in revertant colonies up to 10 uM in presence of S9 fraction by Ames test; assay type: toxicity, subcellular; details: salmonella enterica subsp. enterica serovar typhimurium
[18] = Mutagenicity in Salmonella typhimurium TA100 assessed as increase in revertant colonies up to 10 uM in absence of S9 fraction by Ames test; assay type: toxicity; details: salmonella enterica subsp. enterica serovar typhimurium
[19] = Mutagenicity in Salmonella typhimurium TA98 assessed as increase in revertant colonies up to 10 uM in presence of S9 fraction by Ames test; assay type: toxicity, subcellular; details: salmonella enterica subsp. enterica serovar typhimurium
[20] = Mutagenicity in Salmonella typhimurium TA98 assessed as increase in revertant colonies up to 10 uM in absence of S9 fraction by Ames test; assay type: toxicity; details: salmonella enterica subsp. enterica serovar typhimurium
[21] = Half life in mouse liver microsomes at 1 uM by LC-MS analysis; assay type: ADME, Microsome
[22] = Cmax in ICR mouse plasma at 80 mg/kg, po administered as single dose; assay type: ADME, organism-based; set-up: dose 80 mg/kg, route oral; details: ICR, plasma, read-out: Cmax
[23] = Tmax in ICR mouse plasma at 80 mg/kg, po administered as single dose; assay type: ADME, organism-based; details: ICR, plasma, read-out: Tmax
[24] = AUC (0 to last) in ICR mouse plasma at 80 mg/kg, po administered as single dose; assay type: ADME, organism-based; set-up: dose 80 mg/kg, route oral, time 0 - last
[25] = AUC (0 to infinity) in ICR mouse plasma at 80 mg/kg, po administered as single dose; assay type: ADME, organism-based; set-up: dose 80 mg/kg, route oral, time infinity
[26] = Apparent clearance in ICR mouse plasma at 80 mg/kg, po administered as single dose; assay type: ADME, organism-based; details: read-out: CL(app) (converted)
[27] = Cmax in ICR mouse liver at 80 mg/kg, po administered as single dose; assay type: ADME, organism-based; set-up: dose 80 mg/kg, route oral
[28] = Tmax in ICR mouse liver at 80 mg/kg, po administered as single dose; assay type: ADME, organism-based
[29] = AUC (0 to last) in ICR mouse liver at 80 mg/kg, po administered as single dose; assay type: ADME, organism-based; set-up: dose 80 mg/kg, route oral, time 0 - last
[30] = AUC (0 to infinity) in ICR mouse liver at 80 mg/kg, po administered as single dose; assay type: ADME, organism-based; set-up: dose 80 mg/kg, route oral, time infinity
[31] = Apparent elimination half life in ICR mouse liver at 80 mg/kg, po administered as single dose; assay type: ADME, organism-based; details: read-out: betat1/2(app) (converted)
[32] = Apparent volume of distribution in ICR mouse liver at 80 mg/kg, po administered as single dose; assay type: ADME, organism-based; details: in vivo
[33] = Mean residence time in ICR mouse liver at 80 mg/kg, po administered as single dose; assay type: ADME, organism-based
[34] = tested on: Plasmodium falciparum; test: Antimalarial activity against drug-resistant Plasmodium falciparum Dd2 harboring V259L mutant infected in human erythrocytes after 72 hrs by SYBR green 1-based fluorescence assay; assay type: functional, organism-based; details: Dd2, 72 h
[35] = tested on: Plasmodium falciparum; test: Antimalarial activity against drug-resistant Plasmodium falciparum Dd2 harboring M133I/A138T double mutant infected in human erythrocytes after 72 hrs by SYBR green 1-based fluorescence assay; assay type: functional, organism-based; details: Dd2, 72 h
[36] = tested on: Plasmodium falciparum; test: Antimalarial activity against drug-resistant Plasmodium falciparum 3D7 harboring A82T/V259L double mutant infected in human erythrocytes after 72 hrs by SYBR green 1-based fluorescence assay; assay type: functional, organism-based; details: 3D7, 72 h
[37] = tested on: Plasmodium falciparum; test: Inhibition of Plasmodium falciparum cytochrome b-c1
[38] = tested on: Plasmodium berghei; test: Antimalarial activity against blood stage luciferase-expressing Plasmodium berghei ANKA 676m1cl1 sporozoites infected in C57BL/6 mouse assessed as suppression of parasitemia at 25 mg/kg, po pretreated for 1 day followed by parasite infection and subsequent compound dosing for 2 days measured up to 30 days post-infection by YOYO1 staining based flow cytometry; assay type: functional

Compound: CCCCN(CCCC)CCOc1ccc2c(=O)c3c(Cl)c(Cl)ccc3[nH]c2c1
- MRT [1]: 6.96 h
- Vz [2]: 223.865 L/kg
- half-life [3]: 6 h
- ED50 [4]: 1.03 mg/kg.day
- ED90 [4]: 1.64 mg/kg.day
- IC50 [5]: 0.041 to 14 nM
- IC50 [6]: 0.043 nM
- IC50 [7]: 228 nM
- IC50 [8]: 0.5 nM
- Activity [9]: 100%
- Activity [10]: Non-Toxic
- Activity [11]: Non-Toxic
- Activity [12]: 100%
- Activity [13]: 100%
- Activity [14]: 100%
- inhibition at 10 µM [15]: 57%
- half-life at 1 µM [16]: 0.2 h
- Activity [17]: Non-Toxic
- Activity [18]: Non-Toxic
- Activity [19]: Non-Toxic
- Activity [20]: Non-Toxic
- half-life at 1 µM [21]: 0.35 h
- Cmax [22]: 226 ng/mL
- Tmax [23]: 2.75 h
- AUC(0-t) [24]: 3050 ng·h/mL
- AUC(0-inf) ([25]; ICR, plasma): 3240 ng·h/mL
- CL/F [26]: 431 mL/min/kg
- Cmax [27]: 21300 ng/mL
- Tmax [28]: 2.75 h
- AUC(0-t) [29]: 168000 ng·h/mL
- AUC(0-inf) [30]: 169000 ng·h/mL
- half-life [31]: 4.63 h
- Vz [32]: 3.605 L/kg
- MRT [33]: 10.1 h
- IC50 [34]: 140 nM
- IC50 [35]: 38 nM
- IC50 [36]: 57 nM
- inhibition [37]: inactive

Compound: COc1cc(NC(C)CCCN)c2ncccc2c1 (stereo unspecified) [PRIMAQUINE]
- MRT [1]: 2.3 h
- Vz [2]: 43.801 L/kg
- Activity [38]: 100%
- Cmax [22]: 531 ng/mL
- Tmax [23]: 0.5 h
- AUC(0-t) [24]: 1260 ng·h/mL
- AUC ([25]; in vivo): 1314 ng·h/mL
- Cmax [27]: 8150 ng/mL
- Tmax [28]: 0.5 h
- AUC(0-t) [29]: 27400 ng·h/mL
- AUC(0-inf) [30]: 27700 ng·h/mL
- Vz [32]: 4.418 L/kg
- MRT [33]: 4.5 h
